Conditions: 101.33 kPa, Liquid, Hot wire method

[2H]C1([2H])C([2H])([2H])C([2H])([2H])C([2H])([2H])C([2H])([2H])C1([2H])[2H] [cyclohexane-d12]
Conditions | thermal conductivity [W/m/K] | thermal diffusivity [m2/s]
280.46 K | 0.1163 | –
280.63 K | 0.1162 | –
280.74 K | 0.1161 | –
280.97 K | – | 6.83e-08
281.35 K | – | 6.85e-08
281.6 K | – | 6.81e-08
291.18 K | 0.1133 | –
291.34 K | 0.1133 | –
291.45 K | 0.1132 | –
291.65 K | – | 6.5e-08
292.04 K | – | 6.54e-08
292.29 K | – | 6.53e-08
303.67 K | 0.11 | –
303.83 K | 0.1099 | –
303.92 K | 0.1098 | –
304.14 K | – | 6.23e-08
304.49 K | – | 6.22e-08
304.72 K | – | 6.19e-08
315.91 K | 0.1067 | –
316.06 K | 0.1066 | –
316.17 K | 0.1066 | –
316.35 K | – | 5.91e-08
316.71 K | – | 5.93e-08
316.96 K | – | 5.96e-08
326.3 K | 0.1042 | –
326.44 K | 0.104 | –
326.54 K | 0.104 | –
326.75 K | – | 5.75e-08
327.08 K | – | 5.73e-08
327.31 K | – | 5.72e-08

Cc1cccc(C)c1 [1,3-dimethylbenzene]
Conditions | thermal conductivity [W/m/K] | thermal diffusivity [m2/s]
258.17 K | 0.1393 | –
258.42 K | 0.1391 | –
258.58 K | 0.1391 | –
259.01 K | – | 9.79e-08
259.67 K | – | 9.79e-08
260.12 K | – | 9.82e-08
275.04 K | 0.1353 | –
275.28 K | 0.1353 | –
275.44 K | 0.1352 | –
275.95 K | – | 9.46e-08
276.57 K | – | 9.45e-08
277 K | – | 9.44e-08
287.36 K | 0.1323 | –
287.6 K | 0.1322 | –
287.77 K | 0.132 | –
288.27 K | – | 9.16e-08
288.91 K | – | 9.19e-08
289.35 K | – | 9.17e-08
294.07 K | 0.1305 | –
294.32 K | 0.1305 | –
294.49 K | 0.1304 | –
294.99 K | – | 9.03e-08
295.64 K | – | 9.06e-08
296.09 K | – | 9.03e-08
311.74 K | 0.126 | –
312 K | 0.1259 | –
312.18 K | 0.1258 | –
312.68 K | – | 8.65e-08
313.34 K | – | 8.66e-08
313.8 K | – | 8.64e-08
328.79 K | 0.1218 | –
329.04 K | 0.1216 | –
329.22 K | 0.1215 | –
329.74 K | – | 8.28e-08
330.36 K | – | 8.22e-08
330.83 K | – | 8.22e-08

CCCc1ccccc1 [propylbenzene]
Conditions | thermal conductivity [W/m/K] | thermal diffusivity [m2/s]
261.18 K | 0.1358 | –
261.4 K | 0.1357 | –
261.57 K | 0.1356 | –
262.04 K | – | 9.04e-08
262.63 K | – | 9.06e-08
263.06 K | – | 9.06e-08
275.09 K | 0.133 | –
275.33 K | 0.1328 | –
275.5 K | 0.1328 | –
275.98 K | – | 8.84e-08
276.61 K | – | 8.87e-08
277.03 K | – | 8.85e-08
294.17 K | 0.1286 | –
294.42 K | 0.1285 | –
294.6 K | 0.1285 | –
295.08 K | – | 8.49e-08
295.74 K | – | 8.53e-08
296.19 K | – | 8.52e-08
312.54 K | 0.1247 | –
312.79 K | 0.1246 | –
312.97 K | 0.1245 | –
313.45 K | – | 8.14e-08
314.1 K | – | 8.16e-08
314.56 K | – | 8.15e-08
329.54 K | 0.1208 | –
329.79 K | 0.1207 | –
329.98 K | 0.1207 | –
330.45 K | – | 7.8e-08
331.09 K | – | 7.79e-08
331.57 K | – | 7.81e-08

[2H]c1c([2H])c([2H])c(C([2H])([2H])[2H])c([2H])c1[2H] [toluene-d8]
Conditions | thermal conductivity [W/m/K] | thermal diffusivity [m2/s]
259.69 K | 0.1349 | –
259.91 K | 0.1348 | –
260.06 K | 0.1348 | –
260.47 K | – | 8.33e-08
261.03 K | – | 8.36e-08
261.42 K | – | 8.36e-08
279.35 K | 0.1298 | –
279.57 K | 0.1297 | –
279.73 K | 0.1296 | –
280.14 K | – | 7.9e-08
280.69 K | – | 7.9e-08
281.08 K | – | 7.88e-08
296.9 K | 0.1251 | –
297.13 K | 0.1249 | –
297.28 K | 0.1249 | –
297.69 K | – | 7.52e-08
298.25 K | – | 7.51e-08
298.64 K | – | 7.51e-08
315.84 K | 0.12 | –
316.08 K | 0.1199 | –
316.24 K | 0.1198 | –
316.65 K | – | 7.15e-08
317.21 K | – | 7.13e-08
317.61 K | – | 7.11e-08
326.47 K | 0.1173 | –
326.7 K | 0.1172 | –
326.87 K | 0.117 | –
327.28 K | – | 6.95e-08
327.85 K | – | 6.93e-08
328.25 K | – | 6.9e-08

C1CCCCCC1 [cycloheptane]
Conditions | thermal conductivity [W/m/K] | thermal diffusivity [m2/s]
262.18 K | 0.1272 | –
262.37 K | 0.1271 | –
262.5 K | 0.1271 | –
262.77 K | – | 8.84e-08
263.24 K | – | 8.9e-08
263.56 K | – | 8.91e-08
280.17 K | 0.1228 | –
280.35 K | 0.1227 | –
280.48 K | 0.1227 | –
280.76 K | – | 8.39e-08
281.19 K | – | 8.4e-08
281.5 K | – | 8.4e-08
297.01 K | 0.1187 | –
297.2 K | 0.1185 | –
297.33 K | 0.1185 | –
297.59 K | – | 7.97e-08
298.03 K | – | 7.98e-08
298.33 K | – | 7.98e-08
320.05 K | 0.1132 | –
320.23 K | 0.1131 | –
320.36 K | 0.113 | –
320.62 K | – | 7.47e-08
321.05 K | – | 7.46e-08
321.34 K | – | 7.46e-08

Source: the NIST ThermoML archive (doi:10.1021/je034162x)
